Measurements: paper PMC9171976 (Frontiers in Nutrition, 2022)

Assays:
[1] = test system: human OATP1B1; design: method as in PMID 32006472; details: low concentration; CHO cells; cited from earlier work
[2] = male, human, in vivo, 20 mg
[3] = clinical; details: male, human, in vivo, 20 mg
[4] = rats; single oral dose of green tea extract 400 mg/kg 30 min before simvastatin; cited from earlier work
[5] = Simvastatin-herb pharmacokinetic interaction study, plasma simvastatin lactone and acid by LC-MS/MS; details: male, human, po, 20 mg
[6] = design: method as in PMID 24419562; details: healthy volunteers; cited from earlier work
[7] = same extract given daily for 2 weeks and simultaneously with the dose of rosuvastatin; cited from earlier work

Structure (SMILES): O=C(O[C@@H]1Cc2c(O)cc(O)cc2O[C@@H]1c1ccc(O)c(O)c1)c1cc(O)c(O)c(O)c1 [epicatechin gallate (ECG), epicatechin gallate]
- Stimulating effect on OATP1B1-mediated DCF uptake [1]: about 160%

Structure (SMILES): CCC(C)(C)C(=O)O[C@H]1C[C@@H](C)C=C2C=C[C@H](C)[C@H](CC[C@@H](O)C[C@@H](O)CC(=O)O)[C@H]21 [Simvastatin acid, simvastatin acid]
- AUC0–24h [2]: 12.1 (54.6) h⋅μg/L
- AUC(0-t) ([3]; AUC0–24h): 16.1 ng·h/mL
- half-life ([3]; po, T1/2): 3.94 h
- Tmax ([3]; po, Tmax): 3.5 h
- Increase of AUC0–6h with green tea extract [4]: 2.0 fold

Structure (SMILES): CCC(C)(C)C(=O)O[C@H]1C[C@@H](C)C=C2C=C[C@H](C)[C@H](CC[C@@H]3C[C@@H](O)CC(=O)O3)[C@H]21 [Simvastatin lactone, simvastatin]
- half-life ([5]; T1/2, 18 subjects, simvastatin 20 mg with green tea extract, geometric mean (% CV)): 4.96 h
- half-life ([5]; T1/2, 18 subjects, simvastatin 20 mg with soy isoflavones, geometric mean (% CV)): 4.51 h
- half-life ([5]; T1/2, SLCO1B1 521CC (n = 4), after green tea): 3.98 h
- half-life ([5]; T1/2, SLCO1B1 521CC (n = 4), after soy isoflavones): 3.9 h
- half-life ([5]; T1/2, SLCO1B1 521CC (n = 4), baseline): 4.83 h
- half-life ([5]; T1/2, SLCO1B1 521TC (n = 8), after green tea): 4.72 h
- half-life ([5]; T1/2, SLCO1B1 521TC (n = 8), after soy isoflavones): 4.71 h
- half-life ([5]; T1/2, SLCO1B1 521TC (n = 8), baseline): 4.54 h
- half-life ([5]; T1/2, SLCO1B1 521TT (n = 6), after green tea): 6.15 h
- half-life ([5]; T1/2, SLCO1B1 521TT (n = 6), after soy isoflavones): 4.71 h
- Effect of green tea extract on t1/2 [4]: no effect

Structure (SMILES): CC(C)(C)NCC(O)COc1cccc2c1CC(O)C(O)C2 (stereo not shown) [nadolol]
- Reduction of systemic exposure with green tea taken as a drink [6]: 85%

Structure (SMILES): CC(C)c1nc(N(C)S(C)(=O)=O)nc(-c2ccc(F)cc2)c1/C=C/[C@@H](O)C[C@@H](O)CC(=O)O [rosuvastatin]
- Reduction of systemic exposure with green tea extract [7]: about 20%
